Source: ChEMBL document CHEMBL1201862, “PubChem BioAssay data set” (2004)
The source made the active and inactive calls.

How the values were obtained:
Aurora kinase A = Aurora kinase A (Homo sapiens, UniProt O14965); assay type: functional;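 further: value from the Navigating the Kinome kinase panel profiling, panel entry STK6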
Aurora kinase B = Aurora kinase B (Homo sapiens, UniProt Q96GD4); assay type: functional
Insulin-degrading enzyme [1] = biological target: T1, Insulin-degrading enzyme (Homo sapiens, UniProt P14735); test: activators of recombinant IDE enzyme, dose response, counter-screen for IDE activator project, biochemical, fluorescence polarization (AID 588681)
T1 sequence (P14735 whole entry): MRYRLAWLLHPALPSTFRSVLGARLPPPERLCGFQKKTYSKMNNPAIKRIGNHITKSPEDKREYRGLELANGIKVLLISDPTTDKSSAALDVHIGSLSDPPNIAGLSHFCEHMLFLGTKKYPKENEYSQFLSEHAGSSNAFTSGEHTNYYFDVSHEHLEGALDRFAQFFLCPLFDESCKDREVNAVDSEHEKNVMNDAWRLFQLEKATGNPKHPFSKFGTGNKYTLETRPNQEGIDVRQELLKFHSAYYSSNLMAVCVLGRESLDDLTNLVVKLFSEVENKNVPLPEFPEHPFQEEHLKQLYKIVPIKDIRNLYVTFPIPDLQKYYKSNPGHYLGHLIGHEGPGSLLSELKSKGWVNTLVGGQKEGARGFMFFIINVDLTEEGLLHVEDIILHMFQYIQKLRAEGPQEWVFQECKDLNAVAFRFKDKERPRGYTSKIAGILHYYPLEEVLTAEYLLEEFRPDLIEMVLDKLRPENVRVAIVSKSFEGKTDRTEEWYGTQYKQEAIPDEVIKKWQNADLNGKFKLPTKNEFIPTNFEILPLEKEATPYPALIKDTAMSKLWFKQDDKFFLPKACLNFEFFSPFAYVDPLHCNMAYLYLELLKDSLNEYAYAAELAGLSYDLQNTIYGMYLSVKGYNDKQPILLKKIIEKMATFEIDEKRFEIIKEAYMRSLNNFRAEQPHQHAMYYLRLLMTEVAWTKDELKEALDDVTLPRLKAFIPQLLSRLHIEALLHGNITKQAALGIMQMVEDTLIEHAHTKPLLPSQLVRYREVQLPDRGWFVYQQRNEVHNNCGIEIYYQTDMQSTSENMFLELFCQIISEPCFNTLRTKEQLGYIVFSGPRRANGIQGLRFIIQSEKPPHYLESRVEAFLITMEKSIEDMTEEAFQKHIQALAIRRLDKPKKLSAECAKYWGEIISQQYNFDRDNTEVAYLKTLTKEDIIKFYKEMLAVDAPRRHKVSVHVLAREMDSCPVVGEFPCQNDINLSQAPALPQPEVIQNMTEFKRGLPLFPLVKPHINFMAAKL

HEK293 [2] = test: HEK cell cytotoxicity by LDH release, dose response, cytotoxicity control for IDE activator project, fluorescence, HEK cells (AID 588440); assay type: functional, cell-based; conditions: Homo sapiens;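 further: cytotoxicity by LDH release measuring loss of membrane integrity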
HEK293 [3] = test: optical interference in Abeta FP readout, dose response, artefact control for IDE activator project, biochemical, fluorescence polarization (AID 588442); assay type: functional, cell-based; conditions: Homo sapiens
Insulin-degrading enzyme [4] = biological target: T1, Insulin-degrading enzyme; test: activators of endogenous IDE in HEK cells, dose response, cell-based, fluorescence polarization (AID 588439); assay type: functional
[5] = biological target: 26S proteasome non-ATPase regulatory subunit 14 (Homo sapiens, UniProt O00487); test: inhibition of proteasome subunit RPN11 – biochemical, fluorescence polarization, uHTS hits, confirmation (AID 602368); assay type: functional
Chain of 26S proteasome non-ATPase regulatory subunit 14 (O00487 whole entry): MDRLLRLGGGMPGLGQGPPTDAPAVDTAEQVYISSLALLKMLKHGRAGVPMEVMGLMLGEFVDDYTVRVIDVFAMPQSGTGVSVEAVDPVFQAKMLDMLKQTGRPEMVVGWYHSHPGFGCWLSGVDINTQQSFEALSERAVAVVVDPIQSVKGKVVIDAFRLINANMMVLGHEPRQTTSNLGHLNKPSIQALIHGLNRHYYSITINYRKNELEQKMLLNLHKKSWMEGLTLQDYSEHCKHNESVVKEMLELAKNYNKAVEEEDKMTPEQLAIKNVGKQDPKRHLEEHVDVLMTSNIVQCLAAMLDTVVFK

Prothrombin = Prothrombin (Bos taurus, UniProt P00735); test: thrombin inhibition, dose response, biochemical, fluorescence polarization, uHTS hits (AID 602369); assay type: functional
[6] = biological target: T2, Probable nicotinate-nucleotide adenylyltransferase (Staphylococcus aureus (strain N315), UniProt P65502); assay type: functional, Staphylococcus aureus subsp. aureus N315; conditions: read-out: IC50_Mean;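 on IC50 Mean: confirmatory dose-response retesting of NadD inhibitor hits first found in an ultra-high-throughput screen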
T2 sequence (P65502 whole entry): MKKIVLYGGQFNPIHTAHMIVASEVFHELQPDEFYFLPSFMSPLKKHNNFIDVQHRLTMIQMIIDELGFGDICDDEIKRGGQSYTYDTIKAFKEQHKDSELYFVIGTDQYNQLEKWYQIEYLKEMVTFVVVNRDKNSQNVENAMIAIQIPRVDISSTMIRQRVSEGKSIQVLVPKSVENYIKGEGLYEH

[7] = biological target: T2, Probable nicotinate-nucleotide adenylyltransferase; assay type: functional, Staphylococcus aureus subsp. aureus N315
[8] = biological target: 72 kDa type IV collagenase (Homo sapiens, UniProt P08253); test: Dose Response validation of uHTS RPN11 inhibitor hits using a MMP-2 Fluorescence assay.; assay type: functional
Chain of 72 kDa type IV collagenase (P08253 whole entry): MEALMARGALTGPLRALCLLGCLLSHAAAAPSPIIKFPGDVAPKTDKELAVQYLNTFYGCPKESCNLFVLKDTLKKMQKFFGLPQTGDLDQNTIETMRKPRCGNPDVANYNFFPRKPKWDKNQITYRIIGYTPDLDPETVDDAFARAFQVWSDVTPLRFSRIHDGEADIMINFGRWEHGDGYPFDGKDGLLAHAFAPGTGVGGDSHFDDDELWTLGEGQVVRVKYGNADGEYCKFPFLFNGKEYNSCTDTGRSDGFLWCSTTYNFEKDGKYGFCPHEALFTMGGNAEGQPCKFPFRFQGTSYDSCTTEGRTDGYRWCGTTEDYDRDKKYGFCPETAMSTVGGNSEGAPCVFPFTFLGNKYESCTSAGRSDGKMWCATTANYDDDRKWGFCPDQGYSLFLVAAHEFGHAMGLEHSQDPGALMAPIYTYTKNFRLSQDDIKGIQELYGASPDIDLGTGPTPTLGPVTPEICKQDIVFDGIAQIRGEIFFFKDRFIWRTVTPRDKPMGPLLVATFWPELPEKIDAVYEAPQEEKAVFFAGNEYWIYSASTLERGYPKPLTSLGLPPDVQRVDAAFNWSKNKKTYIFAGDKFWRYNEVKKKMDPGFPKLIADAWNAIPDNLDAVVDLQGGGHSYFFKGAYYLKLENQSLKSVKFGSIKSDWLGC

Chain of Aurora kinase A (O14965 whole entry): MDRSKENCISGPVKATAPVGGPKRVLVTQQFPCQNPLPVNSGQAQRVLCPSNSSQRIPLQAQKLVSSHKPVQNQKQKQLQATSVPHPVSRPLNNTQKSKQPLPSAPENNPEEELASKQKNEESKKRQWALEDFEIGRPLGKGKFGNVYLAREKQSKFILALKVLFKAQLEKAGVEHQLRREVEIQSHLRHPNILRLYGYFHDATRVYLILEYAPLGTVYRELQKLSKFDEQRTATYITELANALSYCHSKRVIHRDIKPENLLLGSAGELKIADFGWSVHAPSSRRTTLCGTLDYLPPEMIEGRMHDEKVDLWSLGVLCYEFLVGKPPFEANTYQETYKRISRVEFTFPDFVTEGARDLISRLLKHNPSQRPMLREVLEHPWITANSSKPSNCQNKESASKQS
Chain of Aurora kinase B (Q96GD4 whole entry): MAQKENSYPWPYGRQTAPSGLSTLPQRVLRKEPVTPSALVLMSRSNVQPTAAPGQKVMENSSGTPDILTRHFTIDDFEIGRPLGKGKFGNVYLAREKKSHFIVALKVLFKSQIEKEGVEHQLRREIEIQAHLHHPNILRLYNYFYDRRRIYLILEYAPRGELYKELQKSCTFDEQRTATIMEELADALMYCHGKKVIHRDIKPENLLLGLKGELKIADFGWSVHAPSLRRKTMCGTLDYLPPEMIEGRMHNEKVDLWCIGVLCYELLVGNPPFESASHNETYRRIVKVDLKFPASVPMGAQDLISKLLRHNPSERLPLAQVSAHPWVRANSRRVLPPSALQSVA

Compound: Nc1ncnc2sc3c(c12)-c1ccc(NC(=O)Nc2cccc(C(F)(F)F)c2)cc1CC3
- Ki (Aurora kinase A): 0.1 µM (active)
- Ki (Aurora kinase B): 0.00126 µM (active)

Compound: O=C1CC2(CCCC2)CC(=O)N1c1ccccc1
- EC50 (Insulin-degrading enzyme [1]): > 54.7 µM (inactive)
- IC50 (HEK293 [2]): > 89.1 µM (inactive)
- EC50 (HEK293 [3]): > 55.9 µM (inactive)
- EC50 (Insulin-degrading enzyme [4]): > 54.7 µM (inactive)

Compound: Cc1ccccc1CN1C(=O)C(C)Sc2ccc(-c3ccco3)cc21 (stereo unspecified)
- IC50 [5]: 36.2 µM (active)
- IC50 (Prothrombin): 43.3 µM (active)
- IC50 [6]: 31.3 µM (active)
- IC50 [7]: 14.2 µM (active)
- IC50 [8]: > 100 µM (inactive)
